Experimental data published in US9566311B2, “Pharmaceutical composition” (Ferring B.V., priority 2010, dated 2017).
Numbered stars: 1 amine (or outer) side, 2 acyl side, 3 side chain; on linkers, the order of the positions; unused ones are H or OH. Bridge positions count the residues as written; N and C are the ends. Peptide text beside a SMILES is read from it. X1 = O=C(CCC[*:2])[*:1]

How the values were obtained:
[1] = in vivo, cited from earlier work
[2] = Stability of FE 202767 in citrate and citrate-phosphate buffers at 40° C., intact peptide by HPLC; type: physicochemical
Procedure: FE 202767 (Ferring) was synthesised by the method set out in WO2009/122285. FE 202767 was dissolved at a concentration of 0.2 mg/ml in either 25 mM citrate buffer (isotonic to saline) or 25 mM citrate-phosphate buffer (isotonic with saline) at varying pH (pH 5.0, 5.5, 6.0), by methods known in the art. The solutions were incubated at 40° C. for 176 days, with samples taken at day 0, 15, 30, 84, and 176.
Samples were evaluated by HPLC to determine the amount of intact peptide remaining at the various time points, by methods well known in the art, comparing the % Area. of the intact peptide peak on the sampling day vs. % Area on Day 0.
The HPLC method used an Agilent 1200 instrument. […] The Phenomenex MAX-RP C18, 2.0×150 mm, 4 μm, 80 Å column was at temperature 40 with UV detection at 210 nm. The injection volume was 10 μL.

[3] = Stability of FE 202767 in various buffers at 40° C./75% RH for one and three months, HPLC; type: physicochemical
Procedure: The method was similar to Example 7. FE 202767 (Ferring) was synthesised by the method set out in WO2009/122285. The FE 202767 was dissolved at a concentration of 0.2 mg/ml in either 25 mM citrate buffer (citric acid/Na citrate), 10 mM acetate buffer (acetic acetate/Na acetate) or 10 mM succinate buffer (1 mM succinic acid+NaOH to relevant pH) at varying pH (pH 5.0, 5.2, 5.5, 5.65, 5.8, 6.0), by methods known in the art. As set out in the table below, the various samples also included isotonicity agent (NaCl, 7 mg/mL or mannitol 47 mg/mL) to achieve isotonicity. Some of the samples included […] (methionine 1 mg/mL, EDTA 1 mg/mL, or combination of EDTA 1 mg/mL and methionine 1 mg/mL). Each formulation (see Table below) was filled in a 10R glass vial sealed with a rubber stopper and an aluminium cap.
The solutions were incubated at 40° C. at 75% RH, with samples taken at day 30 (1 month), and day 90 (3 months).
Samples were evaluated by HPLC to determine the amount of intact peptide remaining at the various time points, by methods well known in the art, comparing the % Area of the intact peptide peak on the sampling day vs. % Area on Day 0.
The HPLC method used an Agilent 1100 instrument. The mobile phases where HPLC Buffers A (A=0.1% TFA in water) and B (B=0.1% TFA in acetonitrile) with the gradient 20 to 30% B in 40 min, then 30 to 60% B in 15 min, then 60 to 20% B in 1 min and then 20% B for 10 min at flow rate 0.5 mL/min. The Zorbax 300SB C16, 3.0×150 mm, 3.5 μm, 300 Å column was at temperature 25 with UV detection at 214 nm. The injection volume was 15 μL

With `CC[C@H](C)[C@@H]1NC(=O)[C@H](Cc2ccc(OC)cc2)NC(=O)CCCSC[C@@H](C(=O)N2CCC[C@H]2C(=O)N[C@@H](CC(C)C)C(=O)NCC(N)=O)NC(=O)[C@H](CC(N)=O)NC(=O)[C@H](CCC(N)=O)NC1=O` [carbetocin, (1-desamino-1-monocarba-2(O-methyl)-tyrosine)oxytocin] (Y(Me)IQNCPLG-NH2; linker N-5 via X1) as the compound, how does the bioavailability ([1]; human, im) read?
Its bioavailability is 80%.

What about the half-life ([1]; human, iv) of the same compound?
The half-life was “approximately 40 minutes”.

What about the “half-life relative to the reported half-life of oxytocin” value ([1]; iv) of the same compound?
The value was 4 to 10 times longer.

And the “time to peak plasma concentrations” value [1]?
Its value is “less than thirty minutes”.

With `CC[C@H](C)[C@@H]1NC(=O)[C@H](Cc2ccc(O)cc2)NC(=O)[C@@H](N)CSSC[C@@H](C(=O)N2CCC[C@H]2C(=O)N[C@@H](CC(C)C)C(=O)NCC(N)=O)NC(=O)[C@H](CC(N)=O)NC(=O)[C@H](CCC(N)=O)NC1=O` [oxytocin] as the compound, how does the reported half-life [1] read?
Its reported half-life is 4 to 10 min.

Which intact peptide remaining ([2]; after 176 days at 40° C. in citrate buffer at pH 5.0 and 5.5) does the source give for carba-1-[4-FBzIGly^7]dOT [FE 202767] here?
The intact peptide remaining was greater than 95%.

And the intact peptide remaining ([2]; after 176 days at 40° C. in citrate-phosphate buffers, pH 5.0, 5.5 and 6.0, each condition)?
The intact peptide remaining was greater than 95%.

What about the “degradation (in words)” value ([2]; after 176 days at 40° C. in pH 6.0 citrate buffer) of the same compound?
The value was “significant degradation”.

What about the “stability (in words)” value ([3]; citrate and acetate buffers in the pH range tested, after 30 days at 40° C.) of the same compound?
The value was “good stability”.

What about the “stability (in words)” value ([3]; citrate and acetate buffers in the pH range tested, after 90 days at 40° C.) of the same compound?
Its value is “good stability”.

And the “stability (in words)” value ([3]; succinate buffer at pH 5.0 to 5.65, after 30 days at 40° C.)?
The value was “very stable”.

What about the “stability (in words)” value ([3]; succinate buffer at pH 5.0 to 5.65, after 90 days at 40° C.) of the same compound?
Its value is “stable”.
